Consider one compound from patent US8993559B2, “Use of ibogamine congeners for treating obesity” (Albany Medical College, priority 2008, dated 2015).

Entries after “also recorded” stand apart in the source; their conditions may differ.

The test system of one experiment is Sprague-Dawley rats. Briefly: Operant sucrose self-administration procedure. The experiment is classed as in vivo, rat. How it is done: Naïve female Sprague-Dawley rats (230-270 g; Taconic, Germantown, N.Y.) were housed individually and maintained on a normal 12 hr light cycle (light on/off at 7 a.m./7 p.m.) in the colony room. For all experiments, food (normal chow) and water were provided ad libitum. The experiments were conducted in accordance with the “Guide for the Care and Use of Laboratory Animals” (National Academy of Sciences, 1996).
Rats were water deprived for 23 h so that shaping of the bar-press response could initially be accomplished by training rats to bar-press for water. Thereafter, in non-deprived rats, oral sucrose self-administration testing began with a 16-h nocturnal session followed by daily 1-h sessions, 5 days (Monday-Friday) a week. Rats were allowed access to two levers mounted 15 cm apart on the front wall of each operant test chamber (Coulbourn Instruments, Allentown, Pa.). A response on either of the two levers produced a sucrose reward (15% solution; 0.01 ml) on a FR1 TO 20 (fixed ratio 1 with a 20 sec time-out) schedule. After rates of sucrose self-administration stabilized (20% variation from one day to the next across 5 days), usually after 2 weeks of testing, 18-MC (10-40 mg/kg) or vehicle was administered i.p. 15 minutes before a test session. Each rat typically received two or three different treatments (in randomized order) spaced at least one week apart.
The operant self-administration data were analyzed by two-way ANOVA with reward (sucrose vs. water) and dose of 18-MC as the main factors. Subsequent post hoc tests (Newman-Keuls) compared the effects of 18-MC to baseline.

The nature of experiment [1]: Weight gain paradigm: water-drinking animals. The experiment is classed as in vivo, rat. Particulars: 18-MC 20 mg/kg i.p. daily for two weeks. How it is done:
Animals were allowed unlimited access to regular chow and water and were injected daily with 18-MC (20 mg/kg, i.p.) or vehicle for two weeks. Body weights were recorded immediately prior to injections and were also recorded for an additional week upon cessation of 18-MC treatment.
For the weight gain experiment, the data for all four treatment groups from days 1-21 were analyzed using two-way ANOVA, with treatment and time as main factors. Furthermore, the data for the first two weeks and the last week for water-vehicle, water-18-MC and sucrose 18-MC were analyzed separately using two-ANOVA, with treatment and time as main factors. Post-hoc comparison tests (Fisher LSD tests) were conducted when appropriate.

Experiment [2] has as its system rats. As to the kind of experiment: Local administration of 18-MC into brain sites: drug self-administration and responding for sucrose. The experiment is classed as in vivo, rat. The text has this:
FIG. 8 is a graph showing effects of local infusion of 18-MC into the basolateral amygdala on methamphetamine self-administration and responding for sucrose. Baseline methamphetamine infusions averaged (S.E.M.) 20.2±0.9 while baseline responding for sucrose averaged (S.E.M.) 27.1±2.1. Each data point represents the mean (S.E.M.) percent of baseline of 6-9 rats. (*=p<0.05-0.01).
Although the medial habenula and the interpeduncular nucleus are the brain regions having the highest concentrations of α3β4 nicotinic receptors, moderate densities of these receptors are localized in the ventral tegmental area, in the basolateral amygdala, and in the dorsolateral tegmentum (caudal pedunculopontine and laterodorsal tegmental nuclei). […] The basolateral amygdala has also been very much implicated in reward-related phenomena, and associated with both stimulants and sucrose. Accordingly, to further investigate brain sites mediating 18-MC's effects on drug self-administration, it was determined if local administration of 18-MC into the dorsolateral tegmentum or basolateral amygdala would alter drug self-administration, the other three sites having already been examined. As done previously, sucrose (15%) was used as a control, non-drug reinforcer. Previously, local administration of 18-MC had no effect on responding for sucrose regardless of whether it was infused into the medial habenula, interpeduncular nucleus, or ventral tegmental area. […] The neural substrates for 18-MC's effects on morphine and sucrose self-administration clearly appear to be different, although both may involve α3β4 nicotinic receptors.

A short description of experiment [3]: Weight gain of rats on high fat or low fat diet. It counts as in vivo, rat. How it is done: FIG. 12 is a graph showing effects of 18-MC (20 mg/kg i.p.) on weight gain of rats. Each data point represents daily weight (g, ±S.E.M.) of rats having access to high fat (HF) or low fat (LF) diet and water, and treated with 18-MC or vehicle. The black bar indicates the duration of treatment with 18-MC: =<0.05, 18-MC vs vehicle.
The development of obesity in rats maintained on a high fat diet is perhaps the commonly used animal model of diet-induced obesity.

Experiment [4] has as its system rats. Particulars: systemic pretreatment; cited from earlier work.
For a further experiment, the target named is α3β4 nicotinic receptors (Homo sapiens, UniProt P30926+P32297). To be noted: cited from earlier work.
Chain of α3β4 nicotinic receptors (P32297 32-505): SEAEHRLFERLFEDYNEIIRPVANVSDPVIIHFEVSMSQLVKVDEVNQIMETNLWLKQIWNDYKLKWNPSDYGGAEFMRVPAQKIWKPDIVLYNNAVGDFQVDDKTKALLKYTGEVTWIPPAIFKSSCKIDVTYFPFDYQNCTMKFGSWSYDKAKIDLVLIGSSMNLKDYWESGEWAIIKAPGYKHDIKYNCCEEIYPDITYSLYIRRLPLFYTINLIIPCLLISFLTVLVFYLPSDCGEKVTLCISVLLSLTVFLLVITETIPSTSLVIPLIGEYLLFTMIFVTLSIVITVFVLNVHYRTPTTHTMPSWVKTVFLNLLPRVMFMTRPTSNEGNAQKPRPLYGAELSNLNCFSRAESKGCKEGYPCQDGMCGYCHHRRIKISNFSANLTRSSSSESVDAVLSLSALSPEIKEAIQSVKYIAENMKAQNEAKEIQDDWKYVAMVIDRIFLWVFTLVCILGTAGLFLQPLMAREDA
Chain of α3β4 nicotinic receptors (P30926 22-498): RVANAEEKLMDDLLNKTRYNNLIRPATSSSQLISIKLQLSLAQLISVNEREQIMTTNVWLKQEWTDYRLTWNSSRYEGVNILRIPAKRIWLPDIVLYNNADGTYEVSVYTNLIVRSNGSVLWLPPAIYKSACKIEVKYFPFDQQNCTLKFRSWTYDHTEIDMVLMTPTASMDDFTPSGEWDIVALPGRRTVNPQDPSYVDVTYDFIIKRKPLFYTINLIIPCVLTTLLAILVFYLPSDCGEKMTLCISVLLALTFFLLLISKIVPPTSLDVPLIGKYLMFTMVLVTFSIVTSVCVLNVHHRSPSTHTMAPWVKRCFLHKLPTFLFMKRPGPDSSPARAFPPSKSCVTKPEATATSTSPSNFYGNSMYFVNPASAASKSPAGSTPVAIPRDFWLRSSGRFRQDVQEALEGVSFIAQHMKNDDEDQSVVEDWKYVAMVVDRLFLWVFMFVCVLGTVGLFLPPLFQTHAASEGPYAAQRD

Turning to `COCC[C@H]1CC2CN3CCc4c([nH]c5ccccc45)[C@](C(=O)OC)(C2)[C@H]13` [18-MC, 18-methoxycoronaridine], the “effect on sucrose responding” value with Sprague-Dawley rats (18-MC 20 mg/kg i.p., 10, 15 and 20% sucrose) is on record as “no significant effect”. Besides, the “decrease of sucrose responding” value in the experiment on Sprague-Dawley rats (18-MC 20 mg/kg i.p., not significant) was 10-20%. The “operant responding for sucrose” value in the experiment with Sprague-Dawley rats (18-MC 40 mg/kg i.p., 15 min before 1-h session, 15% sucrose) is given as “reduced; also recorded: decreased”. The “operant responding for water” value in the experiment with Sprague-Dawley rats (18-MC up to 40 mg/kg i.p., water 0.01 ml/barpress) is “no effect”. Also, the “body weight of rats maintained on water and chow” value in experiment [1] is “no effect”. Moreover, the responding for sucrose entry with rats [2] (infused into the medial habenula, interpeduncular nucleus, or ventral tegmental area (previous work)) is given as “no effect”; with rats [2] (local administration into the basolateral amygdala, 15% sucrose), “decreased”; in the experiment with rats [2] (local administration into the dorsolateral tegmentum, 15% sucrose) it was “decreased”. Further, the methamphetamine self-administration entry in the experiment on rats [2] (local administration into the basolateral amygdala) is “decreased”. For the same compound, the “morphine or methamphetamine self-administration” value in the experiment with rats [2] (local administration into the dorsolateral tegmentum) is recorded as “no effect”. In addition, the “excessive weight gain attributable to the high fat diet” value in experiment [3] (18-MC 20 mg/kg i.p. daily for two weeks, 45 kcal % fat) is on record as “totally prevented”. For the same compound, in experiment [3] (18-MC 20 mg/kg i.p. for two weeks, high fat diet), the “decrease of weights of fat depots in HF rats” value is recorded as “about 35%”. Besides, the “decrease of weights of fat depots in LF rats” value in experiment [3] (18-MC 20 mg/kg i.p. for two weeks, low fat diet (10 kcal % fat)) is recorded as “not in LF rats”. Further, the “intravenous self-administration of morphine and other drugs” value in the experiment on rats [4] was “reduce”. Moreover, at α3β4 nicotinic receptors, the “action at α3β4 nicotinic receptors” value was “selective antagonist; also recorded: noncompetitive antagonist”.
